Experimental data: PMC11959706, “Allatostatin-C signaling in the crab Carcinus maenas is implicated in the ecdysis program” (The Journal of Experimental Biology, 2025)
“And” between values parts separate entries of the source, which are not always exact repeats. Equal values may be shown once. Bridge positions count the residues as written; N and C are the ends. Ends that are not written are not given here.

Key:
AST-CRd (TR71151) = assay: Aequorin luminescence receptor assay, CHO-K1-Aeq-Gα16 cells transiently expressing AST-CRd; format: cell-based, Carcinus maenas; conditions: for Activation of AST-CRd at saturating doses: 10, 1 µmol l^−1 peptide, quadruplicate
Source text: The transcriptome of neural tissue of C. maenas, which has been previously assembled ([Oliphant et al., 2018]), identified four putative AST-C receptor candidates: TR71151a-d ([Oliphant et al., 2018]). These were chemically synthesized with a modified 5′ Kozak sequence (GAATTCGCCACC) and cloned in frame into a pcDNA3.1(+) plasmid vector (Genscript, Piscataway, NJ, USA). Separate aliquots of OneShot TOP10® E. coli cells (Invitrogen, Paisley, UK) were transformed with the plasmids and grown on LB plates containing 100 µg ml^−1 ampicillin overnight at 37°C. Positive clones were cultured overnight in LB broth with 100 µg ml^−1 ampicillin at 37°C and plasmids extracted using a Qiagen Plasmid Midiprep kit according to the manufacturer's instructions. Purified plasmids were re-sequenced (MWG Eurofins, Ebersberg, Germany) and analyzed using Geneious 9.1.8 ([Kearse et al., 2012]).
Chinese hamster ovary (CHO-K1) cells containing stably expressed apoaequorin (Perkin Elmer, Boston, MA) and either Gα16 or Gq subunit (control cells) were cultured in Dulbecco's Modified Eagle Medium (DMEM) F-12 Nutrient Mixture Glutamax (Gibco®) supplemented with 10% fetal bovine serum (Gibco®). Cells were maintained in vented T75 flasks at 37°C in 5% CO2. Cells grown in a monolayer to approximately 60% confluency were transfected with pcDNA 3.1 constructs using FugeneHD® (Promega) according to the manufacturer's recommendations. Transfection medium was prepared by combining 800 µl Opti-MEM® (Gibco) with 10 µg vector and the cells further incubated overnight. Cells were detached from the culture flask by incubating for 10 min in 5 ml 0.2% EDTA in PBS, washed in 10 ml clear DMEM–F-12 containing L-glutamine and 15 mmol l^−1 HEPES, centrifuged (for 5 min at 260 g) and resuspended at a concentration of 5×10^6 cells ml^−1 in 0.2 µm filtered BSA medium (DMEM–F-12 containing L-glutamine, 15 mmol l^−1 HEPES and 0.1% BSA). Coelenterazine h (Invitrogen, Paisley, UK) was added to give a concentration of 5 µmol l^−1, and the cells incubated in the dark at room temperature with gentle rocking. Before the assay, cells were further diluted (10-fold) and incubated for 60 min before use. Dried aliquots of peptides were reconstituted in BSA medium, and 50 µl added in quadruplicate to a white 96-well plate (Optiplate®, Perkin Elmer). Cell suspensions were gently stirred and injected (50 µl per well) using a Mithras LB 940 microplate reader (Berthold Technologies, Bad Wildbad, Germany) and light emission (Ca^2+ response recorded for 30 s). Cells were then lysed by injection of 50 µl per well 0.3% Triton-X in BSA medium, and light emission recorded for a further 10 s to measure total Ca^2+ response. BSA medium was used for blank measurements (six replicates per plate) and transfection with empty vectors was used for negative controls. Data were analyzed using Mikrowin 2010 v5 (Mikrotek Laborsysteme, Overath, Germany) and SigmaPlot v15 (Systat Software, Grafiti, Slough, UK).

[1] = tested on: semi-isolated heart preparations; assay: Semi-isolated heart preparation bioassay; parameters: species or system Carcinus maenas; conditions: 10^−6 mol l^−1 in saline, 20°C, recorded about 2 min; four preparations
Source text: To determine possible myotropic and/or myoinhbitory activity of AST-C, AST-CC and AST-CCC, inter-molt crabs (∼65 mm carapace width) were ice-anaesthetized and rapidly decerebrated before removing all limbs and the dorsal carapace to expose the heart and pericardial cavity. The preparation was then fitted into a bowl lined with tissue, to provide a stable saline-flooded environment. The heart was connected to a force transducer (MLT0210/A) via a micro-fishing hook (size 28) and fine nylon (0.08 mm) monofilament. Connection to a PC with Chart 4.0 software was via a Bridge Pod (ML301) and Powerlab 4/20 (AD Instruments, Castle Hill, NSW, Australia). Transducer gain was set at maximum sensitivity (200 μV). Heart preparations were initially perfused with Carcinus physiological saline ([Saver et al., 1999]) at room temperature (20°C). Once a stable output was achieved, hearts were then perfused by sequentially adding approximately 2 ml saline containing AST-C, AST-CC and AST-CCC (GenScript Biotech, Piscataway, NJ, USA), and finally adding CCAP as a positive control (all peptides were at a concentration of 10^−6 mol l^−1 in saline). Each peptide addition was followed by extensive washout with saline, recording heart rate and beat amplitude for approximately 2 min after application of each peptide.

AST-CR(d) = assay: Aequorin luminescence receptor assay, AST-CR(d) construct in control cells expressing a Gq subunit; format: cell-based, Carcinus maenas; conditions: CHO-K1-Aeq control cells expressing a Gq subunit, transfected with AST-CR(d) construct
Procedure: Chinese hamster ovary (CHO-K1) cells containing stably expressed apoaequorin (Perkin Elmer, Boston, MA) and either Gα16 or Gq subunit (control cells) were cultured in Dulbecco's Modified Eagle Medium (DMEM) F-12 Nutrient Mixture Glutamax (Gibco®) supplemented with 10% fetal bovine serum (Gibco®). Cells were maintained in vented T75 flasks at 37°C in 5% CO2. Cells grown in a monolayer to approximately 60% confluency were transfected with pcDNA 3.1 constructs using FugeneHD® (Promega) according to the manufacturer's recommendations. Transfection medium was prepared by combining 800 µl Opti-MEM® (Gibco) with 10 µg vector and the cells further incubated overnight. […] Cell suspensions were gently stirred and injected (50 µl per well) using a Mithras LB 940 microplate reader (Berthold Technologies, Bad Wildbad, Germany) and light emission (Ca^2+ response recorded for 30 s). Cells were then lysed by injection of 50 µl per well 0.3% Triton-X in BSA medium, and light emission recorded for a further 10 s to measure total Ca^2+ response. […] Data were analyzed using Mikrowin 2010 v5 (Mikrotek Laborsysteme, Overath, Germany) and SigmaPlot v15 (Systat Software, Grafiti, Slough, UK).

YOs = tested on: YOs; parameters: method as in Liu et al., 2021; conditions: 10^−6 M; S. paramamosain; EIA measuring 20-hydroxyecdysone; ref Liu et al., 2021; cited from earlier work
vitellogenesis = conditions: S. paramamosain; ref Liu et al., 2019; cited from earlier work
Source text: It is likely that vitellogenesis takes place during inter-molt in this species, as it does in C. maenas ([Styrishave et al., 2008]), a closely related portunid crab. Since AST-C and likely AST-CC are only ephemerally released during the completion of ecdysis in the latter species, involvement of AST-C in inhibition of vitellogenesis seems entirely improbable, and it is extremely unlikely that in vivo injection of AST-C, as reported by [Liu et al. (2019)], has any biological relevance i ...

AST-C receptor = conditions: S. paramamosain AST-C receptor, CRE-Luc reporter, HEK293; ref Liu et al., 2021; cited from earlier work
Source text: For decapod crustaceans, the only other AST-C receptors that have been functionally de-orphaned are those from Cancer borealis, using EGFP fused to the C-terminus of the AST-C receptor and expression in Spodoptera frugiperda SF9 cells ([Dickinson et al., 2019]), and from H. americanus, using chimeric EGFP constructs in Tricoplusia ni cells.

Row | Substance | Activation of AST-CRd at saturating doses (AST-CRd (TR71151)) | ED50, luminescence response (AST-CRd (TR71151); CHO-K1-Aeq-Gα16 cells transiently expressing AST-CRd, assayed in quadruplicate, two independent experiments, approximate values) | Effect on heartbeat amplitude [1] | Effect on heartbeat frequency (heart rate) [1] | Luminescent response in control cells (AST-CR(d)) | Effect on ecdysteroid synthesis by YOs in vitro (YOs) | Effect of in vivo injection on vitellogenesis (vitellogenesis) | ED50, receptor activation (AST-C receptor) [nM]
1 | GNGDGRLYWRCYFNAVSCF (disulfide 11-18 (inferred)) [AST-CC, C. maenas AST-C family neuropeptide; synthetic (GenScript)] | equally active | 2 nM and 2 to 6 nM | entirely unaffected | entirely unaffected | no luminescent response |  |  | 
2 | pQIRYHQCYFNPISCF (disulfide) [AST-C, allatostatin-C, C. maenas AST-C family neuropeptide with C-terminal PISCF motif; synthetic (GenScript)] | equally active |  | entirely unaffected | entirely unaffected | no luminescent response | slightly inhibit | inhibits vitellogenesis | ~6
